# Patent publication US9109048B2, “Inhibition of tumor growth” (priority 1998, dated 2015)
# Where two headings read alike, the source gives them in different places. Square brackets hold non-standard residues; d marks the D form. Ends that are not written are not given here. Peptide text beside a SMILES is read from it. Orn = NCCC[C@H](N)C(=O)O
# Legend:
# [1] = system: Staphylococcus aureus ATCC 25923; assay: MIC (minimum inhibitory concentration) test, microdilution; assay type: cell-based
# Procedure: (§1) The bacterial strains used were: Escherichia coli ATCC 25922 and Staphylococcus aureus ATCC 25923. All strains were stored at −70° C. The bacteria were grown in 2% Bacto Peptone water (Difco 1807-17-4). All tests were performed with bacteria in mid-logarithmic growth phase. Determination of the minimum inhibitory concentration (MIC) of the peptides for bacterial strains were performed in 1% Bacto Peptone water. A standard microdilution technique with an inoculum of 2×10^6 CFU/ml was used. All assays were performed in triplets. Since the peptides are positively charged and therefore could adhere to the plastic wells, we controlled the actual concentration of the peptides in the solution by HPLC. There was no difference between the concentration of the peptides before or after adding the solution to the plastic wells.
# [2] = system: MRSA (methicillin resistant S. aureus); assay type: cell-based
# Procedure: as §1
# (§2) Table 15 below gives the antibacterial activity and toxicity data for some preferred peptides of the invention. MRSA is methicillin resistant S. aureus and MRSE is methicilin resistant S. epidermidis.
# [3] = system: human red blood cells; assay: Hemolytic assay; assay type: cell-based
# Procedure: The hemolytic activities of the peptides were determined using fresh human red blood cells. 8 ml blood was taken from a healthy person. 4 ml blood was transferred to a polycarbonate tube containing heparin to a final concentration of 10 U/ml, and the remaining 4 ml blood was transferred to a glass tube containing EDTA with final concentration of 15% EDTA. The erythrocytes were isolated from heparin-treated blood by centrifugation in 1500 rpm for 10 min and washed three times with phosphate-buffered saline (PBS) to remove plasma and buffy coat. The cell pellet was resuspended in PBS to make the final volume of 4 ml. The peptide was diluted to a concentration of 2 mg/ml and 0.1 mg/ml. The peptide was further diluted to the concentrations as stated in Table 1. For each tube PBS was added first, then RBCs and peptide solutions. The hematocrit in the blood treated with EDTA was determined after 30 min with Sysmex K-1000, and the resuspended RBCs were diluted into 10% hematocrit. RBCs in PBS (1%) with and without peptides (Table 18) were incubated in a shaker at 37° for 1 hour and then centrifuged at 4000 rpm for 5 min. The supernatant were carefully transferred to new polycarbonate tubes and the absorbance of the supernatant was measured at 540 nm. Baseline hemolysis was hemoglobin released in the presence of PBS, and 100% hemolysis was hemoglobin released in the presence of 0.1% Triton X-100.
# [4] = system: Escherichia coli ATCC 25922; assay: MIC (minimum inhibitory concentration) test, microdilution; assay type: cell-based
# Procedure: as §1
# [5] = system: human promyelotic leukemia cell line HL 60; assay: Cytotoxicity on HL 60 cells, MTT; assay type: cell-based
# Procedure: HL 60 cells, 1×10^4 were incubated with peptides 50, 30, 20, 10, 5, 1 μg, 1000-20 μg/ml in 2 hours and coloured with MTT;
# [6] = system: Meth A fibrosarcoma; assay: Tumor regression, murine Meth A fibrosarcoma; assay type: in vivo, mice
# Procedure: Specific pathogen-free CB6F1 (Balb/c×C57 BL/6) female mice of about 8 weeks of age were obtained from Charles River (Germany). The mice were kept on standard laboratory chow and water. Tumor bearing mice were serologically screened for viral (LDH, CMV) and mycoplasmic infection and in all cases tested negative.
# After a single inoculation of 5×10^7 viable Meth A cells, different LF peptides were injected intratumorally (LFB-14-31, LFB 17-31 Pmc, 500 μg in a 50 μl dose; LFB 17-31, 1000 μg in a 50 μl dose), on day 7 and day 10. LFB 14-31 was also injected intraperitoneally (PBI), 500 μg/ml. Saline only was injected in the control mice (50 μl) (K1,K2,K3). The tumor diameter (mean of transversal and longitudinal) were measured with an electronic calipper.
# [7] = system: MRSE (methicilin resistant S. epidermidis); assay type: cell-based
# Procedure: as §1, §2
# [8] = injected intratumorally on day 7 and day 10
# [9] = Table 1, synthetic lactoferricins
MIC S. aureus ([1]; Table 15) [µg/mL],MIC MRSA ([2]; Table 15) [µg/mL],MIC MRSA ([2]; methicillin resistant) [µM],MIC E. coli ([4]; ATCC 25922) [µM],MIC E. coli ([4]; Table 15) [µg/mL],MIC MRSE ([7]; methicilin resistant) [µM],Compound,EC50 ([3]; red cells of human) [µM],"EC 50 (toxicity, hemolysis) ([3]; red cells of human) [µg/mL]",further results
2.5,2.5,1.2,,,,CSCC[C@H](NC(=O)[C@H](CCCN)NC(=O)[C@H](Cc1c[nH]c2ccccc12)NC(=O)[C@H](C)NC(=O)[C@H](Cc1c[nH]c2ccccc12)NC(=O)[C@H](CCCN)NC(=O)[C@H](Cc1ccccc1)NC(=O)[C@H](C)NC(=O)[C@H](CCCN)NC(=O)[C@H](CCCN)NC(=O)[C@H](Cc1c[nH]c2ccccc12)NC(=O)[C@H](C)NC(=O)[C@@H]1CCCN1)C(=O)N[C@@H](CC(C)C)C(=O)N[C@@H](CCCN)C(=O)N[C@@H](CCCN)C(=O)N[C@@H](C)C(=O)N[C@@H](C)C(=O)O (H-PAW[Orn][Orn]AF[Orn]WAW[Orn]ML[Orn][Orn]AA-OH; N-terminus assumed),202,,"MIC S. aureus ([1]; ATCC 25923): 1.2 µM; EC 50 (toxicity, hemolysis) ([3]; Table 15): 425 µg/mL"
,5.0,2.2,8.8,20.0,,"CSCC[C@H](NC(=O)[C@H](CCCNC(=N)N)NC(=O)[C@H](Cc1c[nH]c2ccccc12)NC(=O)[C@H](C)NC(=O)[C@H](Cc1c[nH]c2ccccc12)NC(=O)[C@H](CCCNC(=N)N)NC(=O)[C@H](CCCNC(=N)N)NC(=O)[C@H](C)NC(=O)[C@H](CCCCN)NC(=O)[C@H](Cc1ccccc1)NC(=O)[C@H](Cc1c[nH]c2ccccc12)NC(=O)[C@H](C)NC(=O)[C@@H]1CCCN1)C(=O)N[C@@H](CCCCN)C(=O)N[C@@H](CCCCN)C(=O)N[C@@H](CC(C)C)C(=O)N[C@@H](C)C(=O)N[C@@H](C)C(=O)O [LFB 14-31 A2,6,10,17]",> 440,>1000,MIC E. coli ([4]; Table 8): 20 µg/mL
,,,,,,CSCC[C@H](NC(=O)[C@H](CCCNC(=N)N)NC(=O)[C@H](Cc1c[nH]c2ccccc12)NC(=O)[C@H](CCC(N)=O)NC(=O)[C@H](Cc1c[nH]c2ccccc12)NC(=O)[C@H](CCCNC(=N)N)NC(=O)[C@H](CCCNC(=N)N)NC(=O)[C@H](CSCNC(C)=O)NC(=O)[C@H](CCCCN)NC(=O)[C@H](Cc1ccccc1)NC(=O)[C@H](Cc1c[nH]c2ccccc12)NC(=O)[C@H](CCC(=O)O)NC(=O)[C@@H]1CCCN1)C(=O)N[C@@H](CCCCN)C(=O)N[C@@H](CCCCN)C(=O)N[C@@H](CC(C)C)C(=O)NCC(=O)N[C@@H](C)C(=O)O [LFB 14-31],,,"Minimum inhibitory concentration (MIC) E. coli ATCC 25922 ([4]; Table 1, value in parentheses): 28 µM; Minimum inhibitory concentration (MIC) S. aureus ATCC 25923 ([1]; Table 1, value in parentheses): 80 µM; cytotoxic effect on human HL 60 cells [5]: no cytotoxic effect; effect on Meth A tumors [6, 8]: induced regression of the Meth A tumors; effect on Meth A tumors ([6]; treated intraperitoneally): tumors were also eradicated"
,,,,,,"CSCC[C@H](NC(=O)[C@H](CCCNC(=N)N)NC(=O)[C@H](Cc1c[nH]c2ccccc12)NC(=O)[C@H](CCC(N)=O)NC(=O)[C@H](Cc1c[nH]c2ccccc12)NC(=O)[C@H](CCCNC(=N)N)NC(=O)[C@H](CCCNC(=N)N)NC(=O)[C@H](CSCNC(C)=O)NC(=O)[C@H](CCCCN)NC(=O)[C@@H](N)Cc1ccccc1)C(=O)N[C@@H](CCCCN)C(=O)N[C@@H](CCCCN)C(=O)N[C@@H](CC(C)C)C(=O)NCC(=O)N[C@@H](C)C(=O)O [LFB 17-31, H2N-Phe-Lys-Cys-Arg-Arg-Trp-Gln-Trp-Arg-Met-Lys-Lys-Leu-Gly-Ala-COOH]",,,"Minimum inhibitory concentration (MIC) E. coli ATCC 25922 ([4]; Table 1, value in parentheses): 20 µM; Minimum inhibitory concentration (MIC) S. aureus ATCC 25923 ([1]; Table 1, value in parentheses): 50 µM; cytotoxic effect on human HL 60 cells ([5]; FIG. 7, concentrations tested): no cytotoxic effect; effect on Meth A tumors [6, 8]: induced regression of the Meth A tumors"
,,,,,,"CC[C@H](C)[C@H](NC(=O)[C@H](CO)NC(=O)[C@@H]1CCCN1C(=O)[C@H](C)NC(=O)CNC(=O)[C@H](CC(C)C)NC(=O)[C@H](CCCCN)NC(=O)[C@H](CCCCN)NC(=O)[C@H](CCSC)NC(=O)[C@H](CCCNC(=N)N)NC(=O)[C@H](Cc1c[nH]c2ccccc12)NC(=O)[C@H](CCC(N)=O)NC(=O)[C@H](Cc1c[nH]c2ccccc12)NC(=O)[C@H](CCCNC(=N)N)NC(=O)[C@H](CCCNC(=N)N)NC(=O)[C@H](CSCNC(C)=O)NC(=O)[C@H](CCCCN)NC(=O)[C@@H](N)Cc1ccccc1)C(=O)N[C@H](C(=O)N[C@@H](CSCNC(C)=O)C(=O)N[C@H](C(=O)N[C@@H](CCCNC(=N)N)C(=O)N[C@@H](CCCNC(=N)N)C(=O)N[C@@H](C)C(=O)N[C@@H](Cc1ccccc1)C(=O)O)C(C)C)[C@@H](C)O [LFB (17-41), reference compound]",,,"Minimum inhibitory concentration (MIC) E. coli ATCC 25922 [4, 9]: 30 µg/mL; Minimum inhibitory concentration (MIC) S. aureus ATCC 25923 [1, 9]: 30 µg/mL; cytotoxic effect on human HL 60 cells ([5]; FIG. 7, concentrations tested): weak concentration dependant cytotoxic effect"
20.0,5.0,,,10.0,,"CSCC[C@H](NC(=O)[C@H](CCCNC(=N)N)NC(=O)[C@H](Cc1ccc2ccccc2c1)NC(=O)[C@H](CCC(N)=O)NC(=O)[C@H](Cc1ccc2ccccc2c1)NC(=O)[C@H](CCCNC(=N)N)NC(=O)[C@H](CCCNC(=N)N)NC(=O)[C@H](CSCNC(C)=O)NC(=O)[C@H](CCCCN)NC(=O)[C@@H](N)Cc1ccccc1)C(=O)N[C@@H](CCCCN)C(=O)N[C@@H](CCCCN)C(=O)N[C@@H](CC(C)C)C(=O)NCC(=O)N[C@@H](C)C(=O)O [LFB Nal6,8]",,>1000,MIC E. coli ([4]; Table 9): 10 µg/mL; MIC S. aureus ([1]; Table 9): 20 µg/mL
2.5,2.5,1.1,4.3,10.0,,CSCC[C@H](NC(=O)[C@H](CCCNC(=N)N)NC(=O)[C@H](Cc1c[nH]c2ccccc12)NC(=O)[C@H](CCC(N)=O)NC(=O)[C@H](Cc1c(S(=O)(=O)c2c(C)c(C)c3c(c2C)CCC(C)(C)O3)[nH]c2ccccc12)NC(=O)[C@H](CCCNC(=N)N)NC(=O)[C@H](CCCNC(=N)N)NC(=O)[C@H](CSCNC(C)=O)NC(=O)[C@H](CCCCN)NC(=O)[C@@H](N)Cc1ccccc1)C(=O)N[C@@H](CCCCN)C(=O)N[C@@H](CCCCN)C(=O)N[C@@H](CC(C)C)C(=O)NCC(=O)N[C@@H](C)C(=O)O [LFB PMC6],,>1000,MIC E. coli ([4]; Table 13): 10 µg/mL
,,1.1,4.5,,1.1,"H-FKWRRWQWRMKKLWA-OH [LFBW3,14, H2N-Phe-Lys-Trp-Arg-Arg-Trp-Gln-Trp-Arg-Met-Lys-Lys-Leu-Trp-Ala-COOH]",,>1000,"MIC E. coli ([4]; Table 14): 10 µg/mL; MIC E. coli ([4]; Table 15, 14): 10.0 µg/mL; MIC S. aureus ([1]; Table 15, 14): 2.5 µg/mL; MIC MRSA ([2]; Table 15, 14): 2.5 µg/mL; MIC MRSE ([7]; Table 15, 14): 2.5 µg/mL"
,1.0,0.7,3.7,5.0,1.8,"RRWYRWWR-NH2 [LFM 17-24 R1,2,8 W3,7Y4NH2]",> 733,>1000,MIC E. coli ([4]; Table 12): 5 µg/mL; MIC MRSE ([7]; Table 15): 2.5 µg/mL
,,,8.3,10.0,0.8,"RWWRYWR-NH2 [LFM 18-24 R1,7 W2,3,6Y5NH2, ARG-TRP-TRP-ARG-TYR-TRP-ARG-CONH2]",> 829,>1000,"MIC E. coli ([4]; Table 12): 10 µg/mL; MIC E. coli ([4]; Table 16, peptides with D-amino acids): 10 µg/mL; MIC S. aureus ([1]; ATCC 25923): 0.4 to 0.8 µM; MIC MRSE ([7]; Table 15): 1.0 µg/mL"
2.5,,,5.9,10.0,1.5,"YRAWRWAWRWR-NH2 [LFB 17-27 A3,7 R2,11 W4,10 Y1 NH2]",,,MIC S. aureus ([1]; ATCC 25923): 1.5 µM; MIC MRSE ([7]; Table 15): 2.5 µg/mL
